Test results as given in patent publication US7049455B2, “Process for producing shogaols and intermediates for the synthesis thereof” (Toagosei Co., Ltd., priority 2002, dated 2006).
Entries after “also recorded” stand apart in the source; their conditions may differ.

System: mushroom-derived tyrosinase
Assay: inhibition of the activity of mushroom-derived tyrosinase, L-dopa as substrate
Assay type: biochemical
Conditions: L-dopa as a substrate, compared with arbutin (Tokyo Kasei Kogyo)
Description: A test of [6]-shogaol obtained in Example 5 about the inhibition of the activity of mushroom-derived tyrosinase was done, using L-dopa as a substrate.

CCCCC/C=C/C(=O)CCc1ccc(O)c(OC)c1 [[6]-shogaol]
inhibition of tyrosinase activity: inhibited tyrosinase activity; also recorded: inhibitory activity at the same level as that of arbutin
